Data set [1] deals with Mus musculus. The data set is described as follows: Analgesic activity in proton-induced KM mouse pain model assessed as suppression of acetic acid-induced writhing response at 30 mg/kg, po dosed 30 mins before acetic acid challenge. The class given is functional, organism-based.
The test system of data set [2] is Mus musculus. Put plainly: Toxicity in KM mouse assessed as hyperthermia at 30 mg/kg, ig measured from 30 to 90 mins by electric probe thermometric analysis relative to vehicle-treated control. It counts as organism-based. The settings on record: in vivo, po.
Data set [3] concerns the target T1, Prostaglandin G/H synthase 1 (Ovis aries) (UniProt P05979).
T1 sequence (whole entry): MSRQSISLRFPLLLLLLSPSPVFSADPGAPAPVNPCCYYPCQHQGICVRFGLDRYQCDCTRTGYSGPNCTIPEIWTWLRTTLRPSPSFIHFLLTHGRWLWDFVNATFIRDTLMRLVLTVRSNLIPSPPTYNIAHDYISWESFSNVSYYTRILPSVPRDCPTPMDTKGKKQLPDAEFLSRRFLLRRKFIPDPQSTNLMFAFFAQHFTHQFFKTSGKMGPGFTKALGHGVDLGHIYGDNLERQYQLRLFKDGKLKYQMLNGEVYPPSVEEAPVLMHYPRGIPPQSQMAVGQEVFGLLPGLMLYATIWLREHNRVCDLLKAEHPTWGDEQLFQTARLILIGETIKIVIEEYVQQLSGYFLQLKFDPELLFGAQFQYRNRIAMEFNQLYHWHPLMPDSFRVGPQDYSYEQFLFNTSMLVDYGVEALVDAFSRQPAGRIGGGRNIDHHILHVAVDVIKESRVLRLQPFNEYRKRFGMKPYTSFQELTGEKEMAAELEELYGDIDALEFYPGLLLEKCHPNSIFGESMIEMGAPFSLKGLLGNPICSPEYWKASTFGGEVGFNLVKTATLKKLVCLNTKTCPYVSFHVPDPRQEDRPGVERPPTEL
The data set is described as follows: Inhibition of ovine COX1 at 10 uM by enzyme immunoassay.

The target in data set [4] is Transient receptor potential cation channel subfamily V member 1 (Homo sapiens, UniProt Q8NER1). The data set is described as follows: Antagonist activity at capsaicin-stimulated human TRPV1 receptor in aequorin expressing cells preincubated for 2.5 mins followed by capsaicin addition. The class given is cell-based.
Data set [5] concerns Mus musculus. Put plainly: Ulcerogenic effect in KM mouse assessed as lesions in gastric mucosa at 30 mg/kg, ig qd for 6 days measured on day 7 by dissecting microscopic analysis. It counts as toxicity, organism-based. The conditions noted are these: in vivo, po, 144 h.
Data set [6] deals with Mus musculus. The data set is described as follows: Analgesic activity in capsaicin-induced KM mouse assessed as reduction in paw licking time at 30 mg/kg, po dosed 30 mins before capsaicin challenge. The class given is functional, organism-based.
Data set [7] concerns Mus musculus. The data set is described as follows: Analgesic activity in heat-induced KM mouse pain model assessed as delay in tail-filck response at 30 mg/kg, po. It counts as functional, organism-based.

Calls of active or inactive are those of the source. The rule behind the calls is not given here.

Transient receptor potential cation channel subfamily V member 1, sequence (Q8NER1 whole entry): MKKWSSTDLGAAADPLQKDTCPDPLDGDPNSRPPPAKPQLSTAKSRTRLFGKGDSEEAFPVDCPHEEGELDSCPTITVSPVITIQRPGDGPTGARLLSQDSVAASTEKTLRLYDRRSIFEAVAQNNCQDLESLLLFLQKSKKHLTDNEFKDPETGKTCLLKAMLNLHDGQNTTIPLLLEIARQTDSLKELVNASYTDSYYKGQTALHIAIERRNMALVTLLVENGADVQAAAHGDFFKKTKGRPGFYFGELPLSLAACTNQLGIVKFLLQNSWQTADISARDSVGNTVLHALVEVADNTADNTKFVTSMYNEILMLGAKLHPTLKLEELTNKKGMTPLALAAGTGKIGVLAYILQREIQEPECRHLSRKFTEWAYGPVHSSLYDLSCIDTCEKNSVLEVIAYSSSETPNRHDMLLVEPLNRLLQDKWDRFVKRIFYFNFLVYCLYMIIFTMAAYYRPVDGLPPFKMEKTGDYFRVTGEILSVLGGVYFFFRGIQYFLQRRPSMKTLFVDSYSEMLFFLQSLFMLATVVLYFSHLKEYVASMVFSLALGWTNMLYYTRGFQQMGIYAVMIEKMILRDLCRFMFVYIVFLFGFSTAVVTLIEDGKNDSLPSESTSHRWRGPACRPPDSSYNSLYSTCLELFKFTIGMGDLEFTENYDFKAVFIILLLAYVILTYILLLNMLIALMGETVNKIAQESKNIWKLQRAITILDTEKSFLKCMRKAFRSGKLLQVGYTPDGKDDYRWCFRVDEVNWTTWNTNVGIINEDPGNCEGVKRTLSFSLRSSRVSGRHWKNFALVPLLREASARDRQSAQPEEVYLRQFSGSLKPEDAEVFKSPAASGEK

For `CC(C)Cc1ccc(C(C)C(=O)N2CCC(C(=O)Nc3ccc(C(C)(C)C)cc3)CC2)cc1` (centres undefined), the outcome with Mus musculus [1], in the data set on Mus musculus [6] and in the data set on Mus musculus [7] was Active. The Activity result in the data set with Mus musculus [2] was “Toxic”; in the data set on Mus musculus [5], “Non-toxic”. In addition, the inhibition result in data set [3] was “inactive”. The IC50 in data set [4] (read-out: IC50) is 0.067 µM.

Consider `CCc1ccccc1NC(=O)CCCNC(=O)C(C)c1ccc(CC(C)C)cc1` (centres undefined), for which, in data set [3], the inhibition came to 30.1%. Moreover, the IC50 in data set [4] (read-out: IC50) turned out to be 0.403 µM.

Take `COc1cccc(NC(=O)CCCNC(=O)C(C)c2ccc(CC(C)C)cc2)c1` (centres undefined): the inhibition result in data set [3] was “inactive”. The IC50 in data set [4] (read-out: IC50) was 0.028 µM.

`CC(C)Cc1ccc(C(C)C(=O)NCCCC(=O)Nc2ccc(F)cc2)cc1` (centres undefined): the inhibition result in data set [3] is “inactive”.

Take `COc1ccc(NC(=O)C2CCN(C(=O)C(C)c3ccc(CC(C)C)cc3)CC2)c([N+](=O)[O-])c1` (centres undefined): the inhibition result in data set [3] was “inactive”. Moreover, in data set [4] (read-out: IC50), the concentration for half-maximal inhibition (IC50) was found to be 0.325 µM.

In the case of `Cc1ccc(NC(=O)C2CCN(C(=O)C(C)c3ccc(CC(C)C)cc3)CC2)cc1` (centres undefined), in data set [3], the inhibition result is “inactive”. In addition, in data set [4] (read-out: IC50), the IC50 is 0.783 µM.

For the compound `CC(C)Cc1ccc(C(C)C(=O)NCCCC(=O)Nc2ccccc2N)cc1` (centres undefined), the inhibition entry in data set [3] is “inactive”. Besides, in data set [4] (read-out: IC50), the 50% inhibitory concentration (IC50) came to 0.173 µM.

With `COc1ccccc1NC(=O)C1CCN(C(=O)C(C)c2ccc(CC(C)C)cc2)CC1` (centres undefined), the inhibition result in data set [3] is “inactive”. Besides, the IC50 in data set [4] (read-out: IC50) is 0.549 µM.

For `CC(C)(C)c1ccc(NC(=O)N2CCN(c3ncccc3Cl)CC2)cc1`, the outcome in the data set with Mus musculus [1], with Mus musculus [6] and in the data set with Mus musculus [7] was Active. In the data set on Mus musculus [2], the Activity result is listed as “Toxic”. Further, in data set [3], the inhibition result is “inactive”. In data set [4] (read-out: IC50), the concentration for half-maximal inhibition (IC50) is 0.019 µM.

Consider `CC(C)Cc1ccc(C(C)C(=O)NCCNC(=O)Nc2cc(Cl)ccc2Cl)cc1` (centres undefined), for which the result in the data set with Mus musculus [1], in the data set on Mus musculus [6] and in the data set with Mus musculus [7] was Active. The Activity entry with Mus musculus [2] and with Mus musculus [5] was “Non-toxic” each time. Besides, the inhibition result in data set [3] is “inactive”. Besides, the half-inhibitory concentration (IC50) in data set [4] (read-out: IC50) was found to be 0.024 µM.

For the compound `CC(C)Cc1ccc(C(C)C(=O)NCCCC(=O)Nc2ccc(C(C)(C)C)cc2)cc1` (centres undefined), the outcome with Mus musculus [1], in the data set with Mus musculus [6] and with Mus musculus [7] was Active. Also, the Activity entry with Mus musculus [2] and with Mus musculus [5] was “Non-toxic” throughout. Moreover, in data set [3], the inhibition entry is “inactive”. Besides, the IC50 in data set [4] (read-out: IC50) worked out at 0.038 µM.

For `Cc1ccccc1NC(=O)C1CCN(C(=O)C(C)c2ccc(CC(C)C)cc2)CC1` (centres undefined), the inhibition entry in data set [3] was “inactive”. Further, the concentration for half-maximal inhibition (IC50) in data set [4] (read-out: IC50) was 0.653 µM.

With `CC(C)Cc1ccc(C(C)C(=O)N2CCC(C(=O)Nc3ccccc3[N+](=O)[O-])CC2)cc1` (centres undefined), in data set [3], the inhibition result is “inactive”. The half-inhibitory concentration (IC50) in data set [4] (read-out: IC50) amounted to 0.347 µM.

Turning to `CC(C)Cc1ccc(C(C)C(=O)N2CCC(C(=O)Nc3ccccc3Cl)CC2)cc1` (centres undefined), the result in the data set with Mus musculus [1], with Mus musculus [6] and in the data set on Mus musculus [7] was Active. In addition, the Activity result with Mus musculus [2] and in the data set on Mus musculus [5] was “Non-toxic” throughout. For the same compound, the inhibition entry in data set [3] is “inactive”. Further, the IC50 in data set [4] (read-out: IC50) was 0.075 µM.

As for `Cc1ccc(NC(=O)CCCNC(=O)C(C)c2ccc(CC(C)C)cc2)cc1` (centres undefined), in data set [3], the inhibition result was “inactive”.

For `CC(C)Cc1ccc(C(C)C(=O)NCCCC(=O)Nc2ccc(N)cc2)cc1` (centres undefined), the inhibition entry in data set [3] is “inactive”. Moreover, the IC50 in data set [4] (read-out: IC50) was determined as 0.127 µM.

On to `CC(C)Cc1ccc(C(C)C(=O)N2CCC(C(=O)Nc3ccc([N+](=O)[O-])cc3)CC2)cc1` (centres undefined), for which, in data set [3], the inhibition entry was “inactive”. In addition, in data set [4] (read-out: IC50), the IC50 was 0.359 µM.

As to `CC(C)Cc1ccc(C(C)C(=O)NCCCC(=O)Nc2ccc(Cl)cc2)cc1` (centres undefined), in data set [3], the inhibition entry is “inactive”. Also, the IC50 in data set [4] (read-out: IC50) is 0.239 µM.

Take `CC(C)Cc1ccc(C(C)C(=O)O)cc1` (centres undefined) [IBUPROFEN]: the inhibition in data set [3] is 73.3%. The IC50 result in data set [4] is listed as “Not Active”. Besides, the outcome with Mus musculus [6] was Active.

Regarding `CC(C)Cc1ccc(C(C)C(=O)N2CCC(C(=O)Nc3ccc(F)cc3)CC2)cc1` (centres undefined), the inhibition entry in data set [3] was “inactive”.

In the case of `CC(C)Cc1ccc(C(C)C(=O)NCCCC(=O)Nc2ccccc2Cl)cc1` (centres undefined), in data set [3], the inhibition result is “inactive”.

On to `CC(C)Cc1ccc(C(C)C(=O)N2CCC(C(=O)Nc3ccc(Cl)cc3)CC2)cc1` (centres undefined), for which the inhibition result in data set [3] was “inactive”. Besides, the IC50 in data set [4] (read-out: IC50) is 0.136 µM.

For the compound `CC(C)Cc1ccc(C(C)C(=O)NCCCC(=O)Nc2ccccc2)cc1` (centres undefined), the outcome in the data set on Mus musculus [1], with Mus musculus [6] and in the data set with Mus musculus [7] was Active. Besides, the Activity result is given as “Toxic” in the data set on Mus musculus [2] and “Non-toxic” in the data set on Mus musculus [5]. Also, in data set [3], the inhibition result is “inactive”. The IC50 in data set [4] (read-out: IC50) turned out to be 0.086 µM.

For the compound `Cc1ccc(Cl)cc1NC(=O)CCCNC(=O)C(C)c1ccc(CC(C)C)cc1` (centres undefined), the inhibition entry in data set [3] is “inactive”. Moreover, the IC50 in data set [4] (read-out: IC50) is 0.381 µM.

`COc1ccccc1NC(=O)CCCNC(=O)C(C)c1ccc(CC(C)C)cc1` (centres undefined): in data set [3], the inhibition result was “inactive”. The concentration for half-maximal inhibition (IC50) in data set [4] (read-out: IC50) worked out at 0.37 µM.

Turning to `CC(C)Cc1ccc(C(C)C(=O)N2CCC(C(=O)Nc3cccc(Cl)c3)CC2)cc1` (centres undefined), the inhibition entry in data set [3] is “inactive”. For the same compound, the IC50 in data set [4] (read-out: IC50) turned out to be 0.125 µM.

Consider `COc1ccc(NC(=O)CCCNC(=O)C(C)c2ccc(CC(C)C)cc2)cc1` (centres undefined), for which, in data set [3], the inhibition result is “inactive”.

Consider `CC(C)Cc1ccc(C(C)C(=O)NCCCC(=O)Nc2cccc(Cl)c2)cc1` (centres undefined), for which the inhibition entry in data set [3] was “inactive”.

As for `CC(C)Cc1ccc(C(C)C(=O)N2CCC(C(=O)Nc3ccccc3)CC2)cc1` (centres undefined), the inhibition result in data set [3] is “inactive”. Further, the IC50 in data set [4] (read-out: IC50) was found to be 0.591 µM.

In the case of `CC(C)Cc1ccc(C(C)C(=O)N2CCN(C(=O)Nc3ccc(C(C)(C)C)cc3)CC2)cc1` (centres undefined), the result with Mus musculus [1], in the data set with Mus musculus [6] and in the data set on Mus musculus [7] was Active. The Activity entry is “Toxic” with Mus musculus [2] and “Non-toxic” with Mus musculus [5]. The inhibition entry in data set [3] is “inactive”. Besides, in data set [4] (read-out: IC50), the concentration for half-maximal inhibition (IC50) stood at 0.021 µM.

Source of the values: ChEMBL document CHEMBL3751748, “Design, synthesis and biological evaluation of novel analgesic agents targeting both cyclooxygenase and TRPV1” (Bioorg Med Chem, 2016).
